Source: patent US20260015350A1, “AZAQUINAZOLINE PAN-KRAS INHIBITORS” (Mirati Therapeutics, Inc., priority 2022, published 2026)

Columns and labels:
[1] = tested on: KRas-mediated phosphorylation of ERK in HCT116 cells; assay: Inhibition of KRas-mediated phosphorylation of ERK (Cisbio HTRF pERK), HCT116 cells; format: cell-based; conditions: Homo sapiens; for inhibition at 0.1 µM: HCT-116, 3 h, single point, 100 nM compound, 3 hrs; for IC50: HCT-116, HTRF pERK
Outline: (§1)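 Phosphorylated ERK was quantified by HTRF using d2-conjugate and Cryptate antibodies added to lysates for 2 hrs at room temperature.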

[2] = tested on: KRas-mediated phosphorylation of ERK in MKN1 cells; assay: Inhibition of KRas-mediated phosphorylation of ERK (Cisbio HTRF pERK), MKN1 cells; format: cell-based; conditions: Homo sapiens, MKN-1
Outline: (§2)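 Phospho-ERK is quantified by HTRF with the Advanced pERK kit. Cells go in at 6,000/well in RPMI plus 10% FBS overnight at 37° C. under 5% CO2, with a 4-hour covered room-temperature incubation ahead of the read.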

[3] = tested on: KRas-mediated phosphorylation of ERK in H727 cells; assay: Inhibition of KRas-mediated phosphorylation of ERK (Cisbio HTRF pERK), H727 cells; format: cell-based; conditions: Homo sapiens, NCI-H727, H727 cells; HTRF pERK
Outline: (§3)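 A cell-based HTRF pERK assay: ten-point, threefold titrations beginning at 10 uM were applied for 3 hrs, with 0.2 uM Trametinib wells as the minimum control. Cells were lysed cold, and lysate was incubated with the antibody pair for 2 hrs before reading.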

[4] = tested on: KRas-mediated phosphorylation of ERK in AsPC-1 cells; assay: Inhibition of KRas-mediated phosphorylation of ERK (Cisbio HTRF pERK), AsPC-1 cells; format: cell-based; conditions: Homo sapiens, ASPC1, AsPC-1 cells; HTRF pERK
Outline: as §3

[5] = tested on: KRas-mediated phosphorylation of ERK in PSN1 cells; assay: Inhibition of KRas-mediated phosphorylation of ERK (Cisbio HTRF pERK), PSN1 cells; format: cell-based; conditions: Homo sapiens
Outline: as §2

[6] = target: T1, KRas^G12D (Homo sapiens, UniProt P01116, G12D); assay: KRas binding assay (TR-FRET tracer displacement), KRas G12D
T1 construct: Biotinylated KRas (corresponding to amino acids 1-169, produced at Accelegan Inc.); biotin (biotinylated); purchased Accelegan Inc
T1 sequence (P01116 1-169 isoform P01116-2 G12D): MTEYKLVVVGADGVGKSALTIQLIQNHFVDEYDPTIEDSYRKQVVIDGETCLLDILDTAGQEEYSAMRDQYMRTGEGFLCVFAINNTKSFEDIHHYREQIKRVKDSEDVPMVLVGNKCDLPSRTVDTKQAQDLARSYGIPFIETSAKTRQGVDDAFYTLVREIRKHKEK

[7] = target: T2, KRas^G12V (Homo sapiens, UniProt P01116, G12V); assay: KRas binding assay (TR-FRET tracer displacement), KRas G12V
T2 construct: Biotinylated KRas (corresponding to amino acids 1-169, produced at Accelegan Inc.); biotin (biotinylated); purchased Accelegan Inc
T2 sequence (P01116 1-169 isoform P01116-2 G12V): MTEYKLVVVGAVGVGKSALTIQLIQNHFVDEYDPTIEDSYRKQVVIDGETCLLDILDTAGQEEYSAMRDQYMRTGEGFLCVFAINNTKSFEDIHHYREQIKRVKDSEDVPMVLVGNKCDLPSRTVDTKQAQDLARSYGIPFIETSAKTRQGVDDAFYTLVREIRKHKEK

[8] = tested on: KRas-mediated phosphorylation of ERK in H460 cells; assay: Inhibition of KRas-mediated phosphorylation of ERK (Cisbio HTRF pERK), H460 cells; format: cell-based; conditions: Homo sapiens; for inhibition at 0.1 µM: NCI-H460, 3 h, single point, 100 nM compound, 3 hrs; for IC50: NCI-H460, HTRF pERK
Outline: as §3

[9] = target: T3, KRas^G12R (Homo sapiens, UniProt P01116, G12R); assay: KRas binding assay (TR-FRET tracer displacement), KRas G12R
T3 construct: Biotinylated KRas (corresponding to amino acids 1-169, produced at Accelegan Inc.); biotin (biotinylated); purchased Accelegan Inc
T3 sequence (P01116 1-169 isoform P01116-2 G12R): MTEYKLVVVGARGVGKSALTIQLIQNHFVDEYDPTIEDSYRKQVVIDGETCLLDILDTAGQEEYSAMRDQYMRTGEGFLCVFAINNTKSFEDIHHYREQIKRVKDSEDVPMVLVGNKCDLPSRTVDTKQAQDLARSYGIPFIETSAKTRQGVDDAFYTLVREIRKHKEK

[10] = tested on: KRas-mediated phosphorylation of ERK in A549 cells; assay: Inhibition of KRas-mediated phosphorylation of ERK (Cisbio HTRF pERK), A549 cells; format: cell-based; conditions: Homo sapiens, HTRF pERK
Outline: as §1

IC50 [2] [nM]	IC50 [3] [nM]	IC50 [4] [nM]	IC50 [5] [nM]	IC50 [6] [nM]	IC50 [7] [nM]	IC50 [9] [nM]	IC50 [1] [nM]	IC50 [10] [nM]	IC50 [8] [nM]	SMILES	inhibition at 0.1 µM [1] [%]	inhibition at 0.1 µM [8] [%]
645	293	590	> 10000	47	14	8	1370	423		CCc1c(F)ccc2cc(O)cc(-c3ncc4c(N5CCC6CCC(C6)C5)nc(OC[C@@]56CCCN5C[C@H](F)C6)nc4c3F)c12 (stereo partly drawn) [Example 550, 4-(4-(3-azabicyclo[4.2.1]nonan-3-yl)-8-fluoro-2-(((2R,7aS)-2-fluorotetrahydro-1H-pyrrolizin-7a(5H)-yl)methoxy)pyrido[4,3-d]pyrimidin-7-yl)-5-ethyl-6-fluoronaphthalen-2-ol]		
22	216	617	> 10000	12	6	4	517	174	165	CCc1c(F)ccc2cc(O)cc(-c3ncc4c(N5C[C@H](F)C[C@@H](OC)C5)nc(OC[C@@]56CCCN5C[C@H](F)C6)nc4c3F)c12 [Example 557, 5-ethyl-6-fluoro-4-(8-fluoro-4-((3R,5R)-3-fluoro-5-methoxypiperidin-1-yl)-2-(((2R,7aS)-2-fluorohexahydro-1H-pyrrolizin-7a-yl)methoxy)pyrido[4,3-d]pyrimidin-7-yl)naphthalen-2-ol]		
78	1130	3420	> 10000	7	5	7				CCc1c(F)ccc2cc(O)cc(-c3ncc4c(N5CCCC(O)(C(N)=O)C5)nc(OC[C@@]56CCCN5C[C@H](F)C6)nc4c3F)c12 (stereo partly drawn) [Example 574, 1-(7-(8-ethyl-7-fluoro-3-hydroxynaphthalen-1-yl)-8-fluoro-2-(((2R,7aS)-2-fluorohexahydro-1H-pyrrolizin-7a-yl)methoxy)pyrido[4,3-d]pyrimidin-4-yl)-3-hydroxypiperidine-3-carboxamide]	18	19
1	258	294	> 10000	5	8	2		467	125	CCc1c(F)ccc2cc(O)cc(-c3ncc4c(N5CCCO[C@@H](CCO)C5)nc(OC[C@@]56CCCN5C[C@H](F)C6)nc4c3F)c12 [Example 578, 5-ethyl-6-fluoro-4-(8-fluoro-2-(((2R,7aS)-2-fluorohexahydro-1H-pyrrolizin-7a-yl)methoxy)-4-((S)-2-(2-hydroxyethyl)-1,4-oxazepan-4-yl)pyrido[4,3-d]pyrimidin-7-yl)naphthalen-2-ol]		
527	1170	1370	> 10000	160	39	41				CCc1c(F)ccc2cc(O)cc(-c3ncc4c(N5CCC(C)C(F)(F)CC5)nc(OC[C@@]56CCCN5C[C@H](F)C6)nc4c3F)c12 (stereo partly drawn) [Example 581, 4-(4-(4,4-difluoro-5-methylazepan-1-yl)-8-fluoro-2-(((2R,7aS)-2-fluorotetrahydro-1H-pyrrolizin-7a(5H)-yl)methoxy)pyrido[4,3-d]pyrimidin-7-yl)-5-ethyl-6-fluoronaphthalen-2-ol]	21	-24
293	391	1230	> 10000	72	10	7				CCc1c(F)ccc2cc(O)cc(-c3ncc4c(N5CCCC(C6(O)CCC6)C5)nc(OC[C@@]56CCCN5C[C@H](F)C6)nc4c3F)c12 (stereo partly drawn) [Example 593, 5-ethyl-6-fluoro-4-(8-fluoro-2-(((2R,7aS)-2-fluorotetrahydro-1H-pyrrolizin-7a(5H)-yl)methoxy)-4-(3-(1-hydroxycyclobutyl)piperidin-1-yl)pyrido[4,3-d]pyrimidin-7-yl)naphthalen-2-ol]	-4	0
26	300	376	> 10000	14	12	7		344	133	CCc1c(F)ccc2cc(O)cc(-c3ncc4c(N5CCCOC(CCOC)C5)nc(OC[C@@]56CCCN5C[C@H](F)C6)nc4c3F)c12 (stereo partly drawn) [Example 601, 5-ethyl-6-fluoro-4-(8-fluoro-2-(((2R,7aS)-2-fluorohexahydro-1H-pyrrolizin-7a-yl)methoxy)-4-(2-(2-methoxyethyl)-1,4-oxazepan-4-yl)pyrido[4,3-d]pyrimidin-7-yl)naphthalen-2-ol]		

More lines, now with the values behind:

SMILES	IC50 [2] [nM]	IC50 [3] [nM]	IC50 [4] [nM]	IC50 [5] [nM]	IC50 [6] [nM]	IC50 [7] [nM]	IC50 [9] [nM]	IC50 [1] [nM]	IC50 [10] [nM]	IC50 [8] [nM]	inhibition at 0.1 µM [1] [%]	inhibition at 0.1 µM [8] [%]
CCc1c(F)ccc2c(Br)c(O)cc(-c3ncc4c(N5C[C@@H]6C[C@H](C5)[C@H](O)C6)nc(OC[C@@]56CCCN5C[C@H](F)C6)nc4c3F)c12 [Example 537, (1R,5R,6R)-3-(7-(4-bromo-8-ethyl-7-fluoro-3-hydroxynaphthalen-1-yl)-8-fluoro-2-(((2R,7aS)-2-fluorohexahydro-1H-pyrrolizin-7a-yl)methoxy)pyrido[4,3-d]pyrimidin-4-yl)-3-azabicyclo[3.2.1]octan-6-ol]	1480	1180	2020	> 10000	407	244	263				2	29
CCc1c(F)ccc2cc(O)cc(-c3ncc4c(/C=C/c5ccnn5C)nc(OC[C@@]56CCCN5C[C@H](F)C6)nc4c3F)c12 [Example 543, 5-ethyl-6-fluoro-4-(8-fluoro-2-(((2R,7aS)-2-fluorotetrahydro-1H-pyrrolizin-7a(5H)-yl)methoxy)-4-((E)-2-(1-methyl-1H-pyrazol-5-yl)vinyl)pyrido[4,3-d]pyrimidin-7-yl)naphthalen-2-ol]	5950	1610	> 10000	> 10000	1690	152	354				5	-1
CCc1c(F)ccc2cc(O)cc(-c3ncc4c(N5CCC(Cn6cccn6)C5)nc(OC[C@@]56CCCN5C[C@H](F)C6)nc4c3F)c12 (stereo partly drawn) [Example 587, 4-(4-(3-((1H-pyrazol-1-yl)methyl)pyrrolidin-1-yl)-8-fluoro-2-(((2R,7aS)-2-fluorotetrahydro-1H-pyrrolizin-7a(5H)-yl)methoxy)pyrido[4,3-d]pyrimidin-7-yl)-5-ethyl-6-fluoronaphthalen-2-ol]	926	3090	2070	> 10000	323	64	74				-12	6
CCc1c(F)ccc2cc(O)cc(-c3ncc4c(N[C@@H](C)c5cc(C(=O)N(C)C)nn5C)nc(OC[C@@]56CCCN5C[C@H](F)C6)nc4c3F)c12 [Example 650, 5-((S)-1-((7-(8-ethyl-7-fluoro-3-hydroxynaphthalen-1-yl)-8-fluoro-2-(((2R,7aS)-2-fluorohexahydro-1H-pyrrolizin-7a-yl)methoxy)pyrido[4,3-d]pyrimidin-4-yl)amino)ethyl)-N,N,1-trimethyl-1H-pyrazole-3-carboxamide]	256	162	1320	> 10000	14	< 2	3	2410	847			
CCc1c(F)ccc2cc(O)cc(-c3ncc4c(N5CCC[C@@](C)(O)C5)nc(OCC5(CNC)CC5)nc4c3F)c12 [Example 696, (R)-1-(7-(8-ethyl-7-fluoro-3-hydroxynaphthalen-1-yl)-8-fluoro-2-((1-((methylamino)methyl)cyclopropyl)methoxy)pyrido[4,3-d]pyrimidin-4-yl)-3-methylpiperidin-3-ol]	123	948	690	> 10000	< 2	< 2	3				5	21
